Values quoted from earlier work as cited in US20160303050A1, “FORMULATIONS CONTAINING DIACEREIN AND METHODS OF LOWERING BLOOD LEVELS OF URIC ACID USING THE SAME” (TWi Biotechnology, Inc., priority 2015, published 2016).

Conditions: single oral administration of 50 mg, healthy volunteers

CC(=O)Oc1cccc2c1C(=O)c1c(OC(C)=O)cc(C(=O)O)cc1C2=O [diacerein, 4,5-bis (acetyloxy) 9,10-dihydro-4,5-dihydroxy-9,10-dioxo-2-anthracenecarboxylic acid]
fasting Tmax (fasting): 2.4 h
Tmax with a meal (with a meal): 5.2 h
